Results as given in article PMC3914206.

What was measured:
Assay type in all cases: binding
Design in all cases: KINOMEscan: ABL1(F317L)-phosphorylated / KINOMEscan: ABL1(H396P)-nonphosphorylated / KINOMEscan: ABL1(H396P)-phosphorylated / KINOMEscan: ABL1(M351T)-phosphorylated / KINOMEscan: ABL1(T315I)-phosphorylated / KINOMEscan: ABL1-nonphosphorylated / KINOMEscan: ABL1-phosphorylated / KINOMEscan: ACVR2A / KINOMEscan: ACVR2B / KINOMEscan: ADCK3 / KINOMEscan: ADCK4 / KINOMEscan: AKT1 / KINOMEscan: AKT3 / KINOMEscan: ALK / KINOMEscan: ARK5 / KINOMEscan: AURKA / KINOMEscan: AURKC / KINOMEscan: BIKE / KINOMEscan: BMPR1A / KINOMEscan: BMPR1B / KINOMEscan: BMX / KINOMEscan: BRK / KINOMEscan: BRSK1 / KINOMEscan: BRSK2 / KINOMEscan: CAMK1 / KINOMEscan: CAMK1D / KINOMEscan: CAMK1G / KINOMEscan: CAMK2A / KINOMEscan: CAMK2B / KINOMEscan: AAK1 / KINOMEscan: CAMK2D / KINOMEscan: CAMK2G / KINOMEscan: ABL1(F317I)-nonphosphorylated / KINOMEscan: ABL1(F317I)-phosphorylated / KINOMEscan: ABL1(F317L)-nonphosphorylated: unit: % Ctrl
Settings in all cases: Compound Concentration 10 µM
[1] = molecular target: T1, panel of 442 kinases (Homo sapiens, UniProt P28482)
T1 construct: purchased KINOMEscan
Text: (§1) We assessed the selectivity of members of this scaffold using the KINOMEscan methodology across a near comprehensive panel of 442 kinases [[18,27]].

[2] = molecular target: T2, panel of 442 kinases (Homo sapiens, UniProt Q9UM73)
T2 construct: purchased KINOMEscan
Text: as §1

[3] = molecular target: T3, panel of 442 kinases (Homo sapiens, UniProt Q9Y616)
T3 construct: purchased KINOMEscan
T3 sequence (Q9Y616 1-596): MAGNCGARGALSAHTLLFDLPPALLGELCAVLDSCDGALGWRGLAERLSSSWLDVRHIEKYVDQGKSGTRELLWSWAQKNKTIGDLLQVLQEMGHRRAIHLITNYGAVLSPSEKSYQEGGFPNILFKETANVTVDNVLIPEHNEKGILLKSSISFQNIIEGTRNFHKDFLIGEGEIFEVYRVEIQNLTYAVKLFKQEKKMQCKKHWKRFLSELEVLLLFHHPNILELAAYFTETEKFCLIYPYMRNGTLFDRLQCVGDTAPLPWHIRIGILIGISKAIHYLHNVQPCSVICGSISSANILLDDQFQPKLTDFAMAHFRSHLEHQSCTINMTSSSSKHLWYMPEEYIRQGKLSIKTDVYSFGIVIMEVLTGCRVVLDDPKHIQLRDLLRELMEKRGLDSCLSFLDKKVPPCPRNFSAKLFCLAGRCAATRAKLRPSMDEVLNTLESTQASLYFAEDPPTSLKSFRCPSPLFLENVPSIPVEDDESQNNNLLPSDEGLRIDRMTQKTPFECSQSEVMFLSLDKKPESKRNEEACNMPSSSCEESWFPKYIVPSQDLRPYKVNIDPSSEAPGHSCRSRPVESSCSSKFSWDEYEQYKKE
Text: as §1

T2 sequence (Q9UM73 19-1620): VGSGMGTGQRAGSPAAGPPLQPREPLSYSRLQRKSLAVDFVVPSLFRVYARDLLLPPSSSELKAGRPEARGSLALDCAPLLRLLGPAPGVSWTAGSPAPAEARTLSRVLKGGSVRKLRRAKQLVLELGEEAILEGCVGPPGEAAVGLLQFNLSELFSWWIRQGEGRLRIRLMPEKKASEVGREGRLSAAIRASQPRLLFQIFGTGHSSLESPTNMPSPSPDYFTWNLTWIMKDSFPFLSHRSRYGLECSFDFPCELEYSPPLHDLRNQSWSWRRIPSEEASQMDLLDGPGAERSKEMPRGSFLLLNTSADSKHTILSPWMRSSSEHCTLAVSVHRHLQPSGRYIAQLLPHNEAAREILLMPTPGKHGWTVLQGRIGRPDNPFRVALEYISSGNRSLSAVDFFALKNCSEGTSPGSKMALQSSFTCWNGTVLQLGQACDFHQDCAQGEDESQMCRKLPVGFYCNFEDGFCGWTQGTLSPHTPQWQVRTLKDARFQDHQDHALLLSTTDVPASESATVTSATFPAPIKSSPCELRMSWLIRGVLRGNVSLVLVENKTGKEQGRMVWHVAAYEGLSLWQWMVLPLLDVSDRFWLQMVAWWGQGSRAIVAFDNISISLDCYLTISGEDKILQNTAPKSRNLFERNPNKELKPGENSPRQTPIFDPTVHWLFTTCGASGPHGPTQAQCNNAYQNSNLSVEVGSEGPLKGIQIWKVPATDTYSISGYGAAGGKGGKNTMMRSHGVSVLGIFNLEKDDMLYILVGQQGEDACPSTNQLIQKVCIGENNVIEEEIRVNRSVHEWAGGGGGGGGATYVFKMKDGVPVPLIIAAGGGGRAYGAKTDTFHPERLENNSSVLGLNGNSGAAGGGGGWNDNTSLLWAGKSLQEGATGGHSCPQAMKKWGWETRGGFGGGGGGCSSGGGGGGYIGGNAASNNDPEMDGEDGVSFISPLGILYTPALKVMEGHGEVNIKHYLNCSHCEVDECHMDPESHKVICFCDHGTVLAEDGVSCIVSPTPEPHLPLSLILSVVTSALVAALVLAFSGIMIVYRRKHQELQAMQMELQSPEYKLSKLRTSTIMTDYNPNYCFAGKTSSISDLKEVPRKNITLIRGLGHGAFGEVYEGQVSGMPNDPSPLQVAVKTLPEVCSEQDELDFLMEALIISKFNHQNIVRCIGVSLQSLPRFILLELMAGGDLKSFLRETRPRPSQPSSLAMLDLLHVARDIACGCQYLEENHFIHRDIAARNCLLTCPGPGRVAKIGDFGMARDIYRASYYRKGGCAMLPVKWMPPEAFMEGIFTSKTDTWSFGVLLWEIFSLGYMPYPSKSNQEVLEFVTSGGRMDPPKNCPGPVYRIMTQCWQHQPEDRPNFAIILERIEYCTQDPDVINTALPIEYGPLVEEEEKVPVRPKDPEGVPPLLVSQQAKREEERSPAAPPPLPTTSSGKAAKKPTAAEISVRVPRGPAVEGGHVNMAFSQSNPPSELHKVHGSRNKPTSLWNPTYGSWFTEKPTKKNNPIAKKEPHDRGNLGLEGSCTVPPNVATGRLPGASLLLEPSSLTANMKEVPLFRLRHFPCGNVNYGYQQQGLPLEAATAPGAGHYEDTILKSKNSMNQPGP
T1 sequence (P28482 whole entry): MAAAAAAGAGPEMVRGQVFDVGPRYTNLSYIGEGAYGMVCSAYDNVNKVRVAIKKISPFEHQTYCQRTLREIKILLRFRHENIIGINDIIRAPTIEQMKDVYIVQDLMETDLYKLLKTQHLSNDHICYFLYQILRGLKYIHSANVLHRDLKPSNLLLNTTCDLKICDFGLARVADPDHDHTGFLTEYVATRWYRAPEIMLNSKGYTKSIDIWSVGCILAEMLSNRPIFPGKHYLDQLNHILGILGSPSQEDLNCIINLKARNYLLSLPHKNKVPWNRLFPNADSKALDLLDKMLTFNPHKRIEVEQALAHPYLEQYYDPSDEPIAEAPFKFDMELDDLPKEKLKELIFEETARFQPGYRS

COc1cc(C(=O)N2CCC(N3CCN(C)CC3)CC2)ccc1Nc1ncc2c(n1)N(C)c1ccccc1C(=O)N2C [15 (LRRK2-IN-1)]
KINOMEscan: ERK2 [1]: 85
KINOMEscan: ALK [2]: 13
KINOMEscan: IRAK3 [3]: 100

COc1cc(C(=O)N2CCC(N3CCN(C)CC3)CC2)ccc1Nc1ncc2c(n1)N1CCc3cccc(c31)C(=O)N2C [Compound 24]
KINOMEscan: ERK2 [1]: 88
KINOMEscan: ALK [2]: 31

COc1cc(C(=O)N2CCC(N3CCN(C)CC3)CC2)ccc1Nc1ncc2c(n1)N(C1CCCC1)c1ccccc1C(=O)N2C [Compound 25, 11-cyclopentyl-2-((2-methoxy-4-(4-(4-methylpiperazin-1-yl)piperidine-1-carbonyl)phenyl)amino)-5-methyl-5H-benzo[e]pyrimido[5,4-b][1,4]diazepin-6(11H)-one]
KINOMEscan: ERK2 [1]: 98
KINOMEscan: ALK [2]: 15
KINOMEscan: IRAK3 [3]: 100

CCOc1cc(C(=O)N2CCC(N3CCN(C)CC3)CC2)ccc1Nc1ncc2c(n1)N(C1CCCC1)c1ccccc1C(=O)N2C [Compound 26]
KINOMEscan: ERK2 [1]: 100
KINOMEscan: ALK [2]: 21
KINOMEscan: IRAK3 [3]: 100
